Measurements: paper PMC2248166, “Quantitative peptide binding motifs for 19 human and mouse MHC class I molecules derived using positional scanning combinatorial peptide libraries” (Immunome Research, 2008)
Where a SMILES comes first, the peptide text is derived from it.

Biological target: HLA A*3201 (Homo sapiens, UniProt P04439, A270S/D101S/D185E/E176V/E277Q/F133L/G103R/G107R/G231S/H175R/I121M/I218V/I322F/K168Q/L105A/L300P/L318F/M331R/P208A/P217A/Q94H/R106L/R138Q/S129P/T104I/T323A/T345S/V100E/V321M/V358M)
Assay: biochemical
Type: binding

Row | SMILES | IC50
1 | CC[C@H](C)[C@H](NC(=O)[C@@H](NC(=O)[C@H](CC(N)=O)NC(=O)[C@H](CC(N)=O)NC(=O)[C@H](Cc1ccc(O)cc1)NC(=O)[C@H](CC(C)C)NC(=O)[C@@H](NC(=O)[C@@H](NC(=O)[C@@H](N)Cc1c[nH]cn1)[C@@H](C)O)[C@@H](C)CC)[C@@H](C)O)C(=O)O [3102.0385] (H-HTILYNNTI-OH) | 1.9 nM
2 | CC[C@H](C)[C@H](NC(=O)[C@H](CCCCN)NC(=O)CNC(=O)[C@H](CC(N)=O)NC(=O)[C@@H](NC(=O)[C@@H](N)CCSC)[C@@H](C)O)C(=O)N[C@@H](CC(N)=O)C(=O)N[C@@H](CO)C(=O)N[C@@H](CC(C)C)C(=O)O [3102.0386] (H-MTNGKINSL-OH) | 22 nM
3 | CC[C@H](C)[C@H](N)C(=O)N[C@H](C(=O)N[C@@H](Cc1ccc(O)cc1)C(=O)N[C@@H](Cc1c[nH]c2ccccc12)C(=O)N[C@@H](CO)C(=O)N[C@@H](CCCNC(=N)N)C(=O)N[C@@H](Cc1ccccc1)C(=O)N[C@H](C(=O)N[C@H](C(=O)O)[C@@H](C)CC)[C@@H](C)O)[C@@H](C)O [3102.0387] (H-ITYWSRFTI-OH) | 2.5 nM
4 | CC[C@H](C)[C@H](NC(=O)[C@H](CO)NC(=O)[C@@H](NC(=O)CNC(=O)[C@H](CC(C)C)NC(=O)[C@@H](NC(=O)[C@H](CO)NC(=O)[C@H](CCSC)NC(=O)[C@@H](N)CCCCN)[C@@H](C)CC)C(C)C)C(=O)O [3102.0388] (H-KMSILGVSI-OH) | 2.4 nM
5 | CC[C@H](C)[C@H](NC(=O)[C@H](CC(N)=O)NC(=O)[C@@H](NC(=O)[C@@H](NC(=O)[C@@H](N)CO)[C@@H](C)O)[C@@H](C)CC)C(=O)N[C@@H](CS)C(=O)N[C@@H](CC(C)C)C(=O)N1CCC[C@H]1C(=O)N[C@@H](Cc1ccc(O)cc1)C(=O)O [3102.0390] (H-STINICLPY-OH) | 32 nM
6 | CC[C@H](C)[C@H](NC(=O)[C@H](CC(C)C)NC(=O)[C@H](Cc1c[nH]cn1)NC(=O)[C@@H](N)CCCNC(=N)N)C(=O)N[C@@H](Cc1ccccc1)C(=O)N[C@@H](CO)C(=O)N[C@@H](Cc1ccc(O)cc1)C(=O)N[C@@H](C)C(=O)N[C@@H](Cc1ccccc1)C(=O)O [3102.0393] (H-RHLIFSYAF-OH) | 14 nM
7 | CC[C@H](C)[C@H](NC(=O)[C@H](CO)NC(=O)[C@H](CS)NC(=O)[C@H](CCSC)NC(=O)[C@@H](N)C(C)C)C(=O)N[C@@H](CO)C(=O)N[C@@H](CC(C)C)C(=O)N[C@H](C(=O)N[C@@H](Cc1ccc(O)cc1)C(=O)O)[C@@H](C)O [3102.0394] (H-VMCSISLTY-OH) | 11 nM
8 | CC[C@H](C)[C@H](NC(=O)[C@@H]1CCCN1C(=O)[C@H](CC(C)C)NC(=O)[C@@H](NC(=O)[C@H](Cc1ccc(O)cc1)NC(=O)[C@H](Cc1ccccc1)NC(=O)[C@H](CCSC)NC(=O)[C@H](CC(C)C)NC(=O)[C@@H](N)Cc1c[nH]cn1)[C@@H](C)O)C(=O)O [3102.0397] (H-HLMFYTLPI-OH) | 0.18 nM
9 | CC[C@H](C)[C@H](NC(=O)[C@H](CC(N)=O)NC(=O)[C@H](CC(N)=O)NC(=O)[C@@H](NC(=O)[C@@H]1CCCN1C(=O)[C@H](CCC(N)=O)NC(=O)[C@H](CC(N)=O)NC(=O)[C@H](CC(C)C)NC(=O)[C@@H](N)CCCNC(=N)N)C(C)C)C(=O)O [3102.0398] (H-RLNQPVNNI-OH) | 25 nM
10 | CC[C@H](C)[C@H](N)C(=O)N[C@@H](CO)C(=O)N[C@@H](Cc1c[nH]c2ccccc12)C(=O)N[C@@H](CCSC)C(=O)N[C@@H](CCSC)C(=O)N[C@@H](CCCCN)C(=O)N[C@@H](CC(C)C)C(=O)NCC(=O)N[C@H](C(=O)O)[C@@H](C)CC [3102.0399] (H-ISWMMKLGI-OH) | 42 nM
11 | CC[C@H](C)[C@H](NC(=O)[C@@H](NC(=O)[C@H](CC(N)=O)NC(=O)[C@@H](NC(=O)[C@@H](NC(=O)[C@H](C)NC(=O)[C@H](Cc1c[nH]c2ccccc12)NC(=O)[C@H](CC(C)C)NC(=O)[C@@H](N)[C@@H](C)O)[C@@H](C)CC)[C@@H](C)CC)[C@@H](C)O)C(=O)O [3102.0403] (H-TLWAIINTI-OH) | 1.5 nM
12 | CC[C@H](C)[C@H](NC(=O)[C@@H](NC(=O)[C@@H]1CCCN1C(=O)[C@@H](NC(=O)[C@H](Cc1ccccc1)NC(=O)[C@H](CC(N)=O)NC(=O)[C@H](CCSC)NC(=O)[C@@H](NC(=O)[C@@H](N)CO)C(C)C)[C@@H](C)CC)[C@@H](C)CC)C(=O)O [3102.0404] (H-SVMNFIPII-OH) | 0.6 nM
13 | CC[C@H](C)[C@H](N)C(=O)N[C@H](C(=O)N[C@@H](Cc1ccc(O)cc1)C(=O)N1CCC[C@H]1C(=O)N[C@@H](CCCCN)C(=O)N[C@@H](C)C(=O)N[C@@H](CC(C)C)C(=O)N[C@H](C(=O)N[C@@H](Cc1ccccc1)C(=O)O)C(C)C)[C@@H](C)O [3102.0405] (H-ITYPKALVF-OH) | 3 nM
14 | CC[C@H](C)[C@H](NC(=O)[C@H](CC(C)C)NC(=O)[C@H](CC(C)C)NC(=O)[C@H](CC(C)C)NC(=O)[C@H](CC(C)C)NC(=O)[C@H](CC(N)=O)NC(=O)CNC(=O)[C@H](CC(C)C)NC(=O)[C@@H](N)CCCCN)C(=O)O [3102.0406] (H-KLGNLLLLI-OH) | 0.72 nM
15 | CC[C@H](C)[C@H](NC(=O)[C@H](Cc1ccc(O)cc1)NC(=O)CNC(=O)[C@H](CO)NC(=O)[C@@H](NC(=O)[C@@H](N)CCCCN)[C@@H](C)O)C(=O)N[C@@H](CO)C(=O)N[C@@H](CO)C(=O)N[C@@H](Cc1ccccc1)C(=O)O [3102.0408] (H-KTSGYISSF-OH) | 0.5 nM
16 | CC[C@H](C)[C@H](NC(=O)[C@@H](NC(=O)[C@H](CC(C)C)NC(=O)[C@@H](NC(=O)[C@@H](NC(=O)[C@H](CO)NC(=O)[C@H](CC(C)C)NC(=O)[C@H](CCSC)NC(=O)[C@@H](N)[C@@H](C)O)[C@@H](C)CC)[C@@H](C)CC)C(C)C)C(=O)O [3102.0409] (H-TMLSIILVI-OH) | 16 nM
17 | CC(C)C[C@H](NC(=O)[C@@H](N)Cc1ccc(O)cc1)C(=O)N[C@@H](Cc1ccccc1)C(=O)N[C@@H](CO)C(=O)N[C@@H](CCC(N)=O)C(=O)N[C@@H](CC(N)=O)C(=O)N[C@@H](Cc1ccc(O)cc1)C(=O)N[C@@H](CO)C(=O)N[C@@H](Cc1ccccc1)C(=O)O [3102.0410] (H-YLFSQNYSF-OH) | 1.4 nM
18 | CC[C@H](C)[C@H](N)C(=O)N[C@@H](CC(C)C)C(=O)N[C@H](C(=O)N[C@H](C(=O)N[C@@H](Cc1ccccc1)C(=O)N[C@H](C(=O)N[C@H](C(=O)N[C@@H](C)C(=O)N[C@H](C(=O)O)[C@@H](C)CC)C(C)C)[C@@H](C)O)[C@@H](C)CC)C(C)C [3102.0411] (H-ILVIFTVAI-OH) | 15 nM
19 | CC[C@H](C)[C@H](NC(=O)[C@@H](N)C(C)C)C(=O)N[C@@H](CC(N)=O)C(=O)N[C@@H](Cc1ccc(O)cc1)C(=O)N[C@@H](Cc1ccccc1)C(=O)N[C@@H](CC(N)=O)C(=O)N[C@@H](CCCNC(=N)N)C(=O)N[C@@H](CCSC)C(=O)N[C@@H](Cc1ccccc1)C(=O)O [3102.0412] (H-VINYFNRMF-OH) | 4.3 nM
20 | CC[C@H](C)[C@H](NC(=O)[C@H](Cc1ccccc1)NC(=O)[C@H](CCCCN)NC(=O)[C@@H](NC(=O)[C@H](Cc1ccc(O)cc1)NC(=O)[C@H](CCC(N)=O)NC(=O)[C@@H](NC(=O)[C@@H](N)CC(C)C)C(C)C)[C@@H](C)CC)C(=O)N[C@@H](Cc1ccccc1)C(=O)O [3102.0413] (H-LVQYIKFIF-OH) | 20 nM
21 | CC[C@H](C)[C@H](NC(=O)[C@@H](N)CCCCN)C(=O)N[C@@H](CC(=O)O)C(=O)N[C@@H](CC(N)=O)C(=O)N[C@@H](Cc1ccc(O)cc1)C(=O)N[C@H](C(=O)N[C@H](C(=O)N[C@@H](CCCCN)C(=O)N[C@@H](Cc1ccccc1)C(=O)O)C(C)C)C(C)C [3102.0414] (H-KIDNYVVKF-OH) | 19 nM
22 | CC[C@H](C)[C@H](N)C(=O)N[C@@H](CO)C(=O)N[C@@H](CC(C)C)C(=O)N[C@@H](Cc1ccccc1)C(=O)N[C@@H](Cc1ccc(O)cc1)C(=O)N[C@H](C(=O)N[C@@H](Cc1ccccc1)C(=O)N[C@@H](C)C(=O)N[C@H](C(=O)O)[C@@H](C)CC)[C@@H](C)O [3102.0415] (H-ISLFYTFAI-OH) | 0.57 nM
23 | C[C@@H](O)[C@H](NC(=O)CN)C(=O)N[C@@H](Cc1c[nH]cn1)C(=O)N[C@@H](Cc1ccc(O)cc1)C(=O)N[C@@H](CCC(N)=O)C(=O)N[C@@H](CC(N)=O)C(=O)N[C@@H](Cc1c[nH]cn1)C(=O)NCC(=O)N[C@@H](Cc1ccccc1)C(=O)O [3102.0417] (H-GTHYQNHGF-OH) | 6 nM
24 | CC[C@H](C)[C@H](NC(=O)[C@@H](NC(=O)[C@@H](N)CO)[C@@H](C)CC)C(=O)N[C@@H](CC(N)=O)C(=O)N[C@@H](CO)C(=O)N[C@@H](CC(N)=O)C(=O)N[C@H](C(=O)N[C@H](C(=O)N[C@@H](Cc1c[nH]c2ccccc12)C(=O)O)[C@@H](C)O)C(C)C [3102.0419] (H-SIINSNVTW-OH) | 11 nM
25 | CC[C@H](C)[C@H](NC(=O)[C@H](CC(C)C)NC(=O)[C@H](Cc1ccccc1)NC(=O)[C@@H](NC(=O)[C@@H](N)CCCNC(=N)N)[C@@H](C)O)C(=O)N[C@@H](CC(=O)O)C(=O)N[C@@H](CC(C)C)C(=O)N[C@@H](C)C(=O)N[C@@H](Cc1ccccc1)C(=O)O [3102.0420] (H-RTFLIDLAF-OH) | 0.48 nM
26 | CC[C@H](C)[C@H](NC(=O)[C@H](CO)NC(=O)[C@H](CC(C)C)NC(=O)[C@@H](NC(=O)[C@H](Cc1ccccc1)NC(=O)[C@H](CC(N)=O)NC(=O)[C@H](CCC(=O)O)NC(=O)[C@@H](NC(=O)[C@@H](N)CCCNC(=N)N)[C@@H](C)O)C(C)C)C(=O)O [3102.0421] (H-RTENFVLSI-OH) | 1.6 nM
27 | CC[C@H](C)[C@H](N)C(=O)N[C@H](C(=O)N[C@@H](Cc1ccc(O)cc1)C(=O)N[C@@H](CCC(=O)O)C(=O)N[C@@H](CCCCN)C(=O)N[C@@H](CO)C(=O)N[C@@H](CC(N)=O)C(=O)N[C@@H](CC(N)=O)C(=O)N[C@H](C(=O)O)[C@@H](C)CC)[C@@H](C)O [3102.0422] (H-ITYEKSNNI-OH) | 18 nM
28 | CC[C@H](C)[C@H](NC(=O)[C@@H](NC(=O)[C@H](CCCNC(=N)N)NC(=O)[C@@H]1CCCN1C(=O)[C@H](Cc1ccccc1)NC(=O)[C@H](Cc1ccccc1)NC(=O)[C@H](CCSC)NC(=O)[C@@H](NC(=O)[C@H](C)N)[C@@H](C)CC)[C@@H](C)O)C(=O)O [3102.0423] (H-AIMFFPRTI-OH) | 1.1 nM
